We go through 13 compounds from patent US4766148A, “Biphenylylpropionic acid derivative and pharmaceutical composition containing the same” (priority 1983, dated 1988).

Series [1] has as its system carrageenan-induced edema. The series is described as follows: Inhibitory effect on carrageenan-induced edema. The series is classed as in vivo, Wistar male rats. Conditions: Rattus norvegicus. On the procedure:
Five Wistar male rats weighing about 150 g. were used as one group. A 1% dispersion of carrageenan was injected intracutaneously into the foot pad of the right hind foot in a dose of 0.1 ml./rat. The compounds to be tested were orally administered to the rats fasted for 15 hours one hour before the carrageenan injection, or intravenously administered 2 hours […] the carrageenan injection. The volume of the foot subjected to the injection was measured by a mercury plethysmography 3 hours after the carrageenan injection on the test by oral route or 2 hours after the carrageenan injection on the test by intravenous route, and the carrageenan-induced edema was estimated from the obtained measurments.
(In general: Carrageenan injected into the paw causes an acute inflammation.)

A short description of series [2]: in vivo. Conditions: mouse, po.
Description: (§3) Eight male SLC-ddY mice 5 week old weighing 25 to 30 g. were used as one group. The compound to be tested was orally administered using a stomach tube. The animals were kept under observation for 2 weeks. The numbers of dead animals were counted and the LD50 values were calculated by the method of Litchfield Wilcoxon.
Series [3] is described as follows: Gastric ulceration (gastric irritation test). The series is classed as in vivo, Wistar male rats. Conditions: rat, in vivo, po. On the procedure: (§1) Five Wistar male rats weighing about 150 g. were used as one group. The rats were fasted for 24 hours before the test.
(§2) Six hours after orally administration of the compounds to be tested, there was observed an existence of gastric ulcer by the method of Okabe et al (Ohyoyakuri, 16, 241 to 247 (1978)). The UD50 values were calculated from the ulcer incidence of gastric ulcer by the method of Litchfield-Wilcoxon.

Series [4] deals with mice. The series is described as follows: Acute toxicity. The settings on record: 20160 min; for LD50: Table 5, male SLC-ddY mice, orally, 2 weeks observation, Litchfield Wilcoxon.
Description: as §3
Series [5] deals with gastric ulcer. The series is described as follows: Gastric ulceration (gastric irritation test). The settings on record: for UD50 (50% ulcerative dose): rat, in vivo, po; for UD50, gastric ulcer: Table 3, Wistar male rats, orally, six hours after administration, Litchfield-Wilcoxon. The series is classed as in vivo, Wistar male rats. On the procedure: as §1, §2
Series [6] in a line: in vitro. The settings on record: human, plasma. How it is done:
Each reaction mixture was incubated at 37° C. for one hour
The free FP formed by esterase in the plasma was extracted with benzene. After treating the extract with N,O-bis(trimethylsilylacetamide) for trimethylsilylation, the obtained material was determined by gas-liquid chromatography.

Series [7] is described as follows: Hydrolysis of FP derivatives in rat plasma. Format: in vitro ADME. Conditions: Table 4; rat plasma (Compound No. 10), 37° C., one hour, amount corresponding to 50 μg. of FP per 1 ml.; read-out: Hydrolyzing rate.
Where [8] appears, read: iv, 2 h, read-out: ED50, carrageenan-induced edema.
The mark [9] stands for this setting: iv, read-out: ED50 (50% effective dose), carrageenan-induced edema inhibition.
Where [10] appears, read: po, read-out: ED50 (50% effective dose), carrageenan-induced edema inhibition.
The mark [11] stands for this setting: po, read-out: ED50, carrageenan-induced edema.
The mark [12] stands for this setting: Table 3, Wistar male rats, orally, six hours after administration, Litchfield-Wilcoxon, read-out: UD50, gastric ulcer.
The mark [13] stands for this setting: iv, Table 1, rats, i.v., read-out: ED50 (50% effective dose), carrageenan-induced edema inhibition.
The mark [14] stands for this setting: iv, Table 2, Wistar male rats, i.v. 2 hours after carrageenan, read-out: ED50, carrageenan-induced edema.
The mark [15] stands for this setting: po, Table 1, rats, p.o., read-out: ED50 (50% effective dose), carrageenan-induced edema inhibition.
[16] abbreviates: po, Table 2, Wistar male rats, p.o. one hour before carrageenan, measured 3 hours after carrageenan, read-out: ED50, carrageenan-induced edema.

The structures appear in SMILES notation. Like-named read-outs stand apart in the source and are kept apart here.

Turning to `CC(=O)OC(C)OC(=O)C(C)c1ccc(-c2ccccc2)c(F)c1` (centres unmarked) [Compound 1, 1-(Acetoxy)ethyl 2-(2-fluoro-4-biphenylyl)propionate], the ED50 – broadly, the midpoint of the dose-response relation – in series [1] (setting [8]) was determined as 0.05 mg/kg; in series [1] (setting [9]) it was 0.05 mg/kg; in series [1] (setting [10]), 0.5 mg/kg; in series [1] (setting [11]), 0.5 mg/kg. Besides, the LD50 (in general, the dose expected to kill half of the subjects tested) at 336 h in series [2] was determined as 650 mg/kg. Also, in series [3] (setting [12]), the TD50 at 6 h was 2.5 mg/kg.
On to `CCC(=O)OC(C)OC(=O)C(C)c1ccc(-c2ccccc2)c(F)c1` (centres unmarked) [Compound 2, 1-(Propionyloxy)ethyl 2-(2-fluoro-4-biphenylyl)propionate], for which the 50% effective dose (ED50) in series [1] (setting [8]) was 0.06 mg/kg; in series [1] (setting [9]) it was 0.06 mg/kg; in series [1] (setting [10]), 0.7 mg/kg; in series [1] (setting [11]), 0.7 mg/kg. This compound also yielded an LD50 at 336 h in series [2] of 800 mg/kg. Besides, the TD50 at 6 h in series [3] (setting [12]) was 3 mg/kg.
Consider `CC(OC(=O)C(C)C)OC(=O)C(C)c1ccc(-c2ccccc2)c(F)c1` (centres unmarked) [Compound 3, 1-(isobutyryloxy)ethyl 2-(2-fluoro-4-biphenylyl)propionate], for which the median effective dose (ED50) in series [1] (setting [8]) was determined as 0.1 mg/kg; in series [1] (setting [9]) it was 0.1 mg/kg; in series [1] (setting [10]), 1.5 mg/kg; in series [1] (setting [11]), 1.5 mg/kg. In series [2], this compound showed an LD50 at 336 h of 880 mg/kg. Further, the TD50 at 6 h in series [3] (setting [12]) stood at 5 mg/kg.
Consider `CC(OC(=O)C(C)c1ccc(-c2ccccc2)c(F)c1)OC(=O)C(C)(C)C` (centres unmarked) [Compound 4, 1-(pivaloyloxy)ethyl 2-(2-fluoro-4-biphenylyl)propionate], for which the “LD50 (50% lethal dose)” value in series [4] (mouse, in vivo, po) is over 1000 mg/kg. Also, the 50% effective dose (ED50) in series [1] (setting [13]) was found to be 0.6 mg/kg; in series [1] (setting [14]), 0.6 mg/kg; in series [1] (setting [15]), 2.5 mg/kg; in series [1] (setting [16]), 2.5 mg/kg. This compound also came in with an LD50 at 336 h in series [2] of over 1000 mg/kg. In series [3], the TD50 at 6 h was 10 mg/kg.
In the case of `CCCCCCCCCCCCCCCC(=O)OC(C)OC(=O)C(C)c1ccc(-c2ccccc2)c(F)c1` (centres unmarked) [Compound 5, 1-(palmitoyloxy)ethyl 2-(2-fluoro-4-biphenylyl)propionate], the “LD50 (50% lethal dose)” value in series [4] (mouse, in vivo, po) is over 1000 mg/kg. The ED50 in series [1] (setting [13]), in series [1] (setting [14]), in series [1] (setting [15]) and in series [1] (setting [16]) was over 5 mg/kg each time. Further, the LD50 at 336 h in series [2] is over 1000 mg/kg. This compound also registered a TD50 at 6 h in series [3] of over 10 mg/kg. For the same compound, the “UD50 (50% ulcerative dose)” value in series [5] (6 h) is over 10.0 mg/kg.
Consider `CCC(OC(C)=O)OC(=O)C(C)c1ccc(-c2ccccc2)c(F)c1` (centres unmarked) [Compound 6, 1-(Acetoxy)propyl 2-(2-fluoro-4-biphenylyl)propionate], for which the median effective dose (ED50) in series [1] (setting [8]) amounted to 0.1 mg/kg; in series [1] (setting [9]), 0.1 mg/kg; in series [1] (setting [10]) it was 1.5 mg/kg; in series [1] (setting [11]), 1.5 mg/kg. For the same compound, in series [2], the 50% lethal dose (LD50) at 336 h was 900 mg/kg. In addition, the TD50 at 6 h in series [3] (setting [12]) was determined as 5 mg/kg.
As for `C/C=C/C(=O)OC(C)OC(=O)C(C)c1ccc(-c2ccccc2)c(F)c1` (centres unmarked) [Compound 7, 1-(crotonoyloxy)ethyl 2-(2-fluoro-4-biphenylyl)propionate], the median effective dose (ED50) in series [1] (setting [8]) came out at 0.08 mg/kg; in series [1] (setting [9]), 0.08 mg/kg; in series [1] (setting [10]), 0.9 mg/kg; in series [1] (setting [11]), 0.9 mg/kg. The LD50 at 336 h in series [2] was found to be 800 mg/kg. The TD50 at 6 h in series [3] (setting [12]) turned out to be 4 mg/kg.
Regarding `CC(C)=CC(=O)OC(C)OC(=O)C(C)c1ccc(-c2ccccc2)c(F)c1` (centres unmarked) [Compound 8, [1-(3,3-dimethylacryloyloxy)ethyl]2-(2-fluoro-4-biphenylyl)propionate], the 50% effective dose (ED50) in series [1] (setting [13]) came out at 0.3 mg/kg; in series [1] (setting [14]), 0.3 mg/kg; in series [1] (setting [15]), 2.5 mg/kg; in series [1] (setting [16]), 2.5 mg/kg. Further, the LD50 at 336 h in series [2] amounted to 1000 mg/kg. In addition, in series [3], the TD50 at 6 h was determined as 7 mg/kg.
As for `CC=CC=CC(=O)OC(C)OC(=O)C(C)c1ccc(-c2ccccc2)c(F)c1` (centres unmarked) [Compound 9, [1-(2,4-Hexadienoyloxy)ethyl]2-(2-fluoro-4-biphenylyl) propionate], the 50% effective dose (ED50) in series [1] (setting [13]) is 0.3 mg/kg; in series [1] (setting [14]) it was 0.3 mg/kg; in series [1] (setting [15]), 2 mg/kg; in series [1] (setting [16]) it was 2 mg/kg. In series [2], this compound showed a median lethal dose (LD50) at 336 h of 1000 mg/kg. Also, the TD50 at 6 h in series [3] was 7 mg/kg. The compound also displayed a metabolised at 1 h in series [6] of 20.4%.
Turning to `CC(C(=O)OC1C(=O)OCC1(C)C)c1ccc(-c2ccccc2)c(F)c1` (centres unmarked) [Compound 10, 3,3-Dimethyl-2-[2-(2-fluoro-4-biphenylyl)propionyloxy]-γ-butyrolactone], the median effective dose (ED50) in series [1] (setting [8]) stood at 0.05 mg/kg; in series [1] (setting [9]) it was 0.05 mg/kg; in series [1] (setting [10]), 0.5 mg/kg; in series [1] (setting [11]), 0.5 mg/kg. Moreover, the metabolised at 1 h in series [7] came out at 72.3%. This compound also showed an LD50 at 336 h in series [2] of 670 mg/kg. Moreover, the TD50 at 6 h in series [3] (setting [12]) came to 2.5 mg/kg.
For `CC(C(=O)O)c1ccc(-c2ccccc2)c(F)c1` (centres unmarked) [FP, 2-(2-fluoro-4-biphenylyl)-propionic acid], in series [4] (Table 1, mice, p.o.), the “LD50 (50% lethal dose)” value was 440 mg/kg. For the same compound, the LD50 in series [4] is 440 mg/kg. Moreover, in series [5] (360 min), the “UD50, gastric ulcer” value is 1.0 mg/kg.
As to `COc1ccc2c(c1)c(CC(=O)OCC(=O)O)c(C)n2C(=O)c1ccc(Cl)cc1` [acemethacin], in series [4] (Table 1, mice, p.o.), the “LD50 (50% lethal dose)” value amounted to 18.0 mg/kg. This compound returned an LD50 in series [4] of 18.0 mg/kg. For the same compound, the “UD50 (50% ulcerative dose)” value in series [5] (360 min) amounted to 17.5 mg/kg.
`COc1ccc2c(c1)c(CC(=O)O)c(C)n2C(=O)c1ccc(Cl)cc1` [indomethacin]: in series [4] (Table 1, mice, p.o.), the “LD50 (50% lethal dose)” value was 14.0 mg/kg. In series [4], this compound displayed an LD50 of 14.0 mg/kg. Further, the “UD50, gastric ulcer” value in series [5] (360 min) is 5.0 mg/kg.
